Like-named read-outs stand apart in the source and are kept apart here.
Target: T1, human type 1 glycine transporter (GlyT1) (Homo sapiens, UniProt P48067)
T1 construct: T98G cells (glioma cells) expressing human type 1 glycine transporter (GlyT1) were used; endogenous in cells; host or cells: T98G cells (human glioma cells)
T1 sequence (P48067 1-706): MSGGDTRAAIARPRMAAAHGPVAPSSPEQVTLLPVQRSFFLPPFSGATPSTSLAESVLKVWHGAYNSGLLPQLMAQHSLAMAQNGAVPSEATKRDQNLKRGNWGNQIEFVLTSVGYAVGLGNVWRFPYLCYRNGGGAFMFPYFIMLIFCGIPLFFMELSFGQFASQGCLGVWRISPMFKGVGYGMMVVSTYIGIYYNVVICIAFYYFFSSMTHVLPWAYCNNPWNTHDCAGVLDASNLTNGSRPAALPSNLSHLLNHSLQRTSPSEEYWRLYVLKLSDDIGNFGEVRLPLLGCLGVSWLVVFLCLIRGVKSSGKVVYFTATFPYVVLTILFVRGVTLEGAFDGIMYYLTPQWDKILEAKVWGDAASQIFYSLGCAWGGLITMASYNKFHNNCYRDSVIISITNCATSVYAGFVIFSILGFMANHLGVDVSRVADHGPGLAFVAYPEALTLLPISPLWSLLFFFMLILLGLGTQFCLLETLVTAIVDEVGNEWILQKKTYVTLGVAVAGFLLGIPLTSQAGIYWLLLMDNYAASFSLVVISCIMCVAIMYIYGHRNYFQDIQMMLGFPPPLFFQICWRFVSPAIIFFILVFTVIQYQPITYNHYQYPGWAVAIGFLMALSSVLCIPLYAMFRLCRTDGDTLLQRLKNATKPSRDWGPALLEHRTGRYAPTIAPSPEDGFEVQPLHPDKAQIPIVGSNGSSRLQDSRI
Experiment: Glycine uptake inhibition experiment ([3H] glycine uptake in T98G cells expressing GlyT1)
Format: cell-based
Method in brief: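 T98G glioma cells expressing human GlyT1 were pretreated 10 min with compound in HEPES buffer pH 7.4 (0.2% BSA), then incubated with compound plus 250 nM final [3H]glycine for 15 min at room temperature. Intracellular radioactivity was counted after NaOH lysis; 10 μM ALX5407 defined non-specific uptake. IC50 came from 10^−9–10^−5 M curves.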

| IC50 [nM] | IC50 (glycine uptake inhibition) [nM] | Structure (SMILES) | other results |
| --- | --- | --- | --- |
| 150 |  | C[C@H](O)c1cccc2c1C(F)(F)C(=O)N2Cc1ncccc1F [Compound 208, 3,3-difluoro-1-[(3-fluoropyridin-2-yl)methyl]-4-[(1S)-1-hydroxyethyl]-1,3-dihydro-2H-indol-2-one] |  |
|  | 17 | C[C@H](O)c1cccc2c1C(F)(F)C(=O)N2Cc1cccc(C(F)(F)F)n1 [Compound 67, 3,3-difluoro-4-[(1S)-1-hydroxyethyl]-1-{[6-(trifluoromethyl)pyridin-2-yl]methyl}-1,3-dihydro-2H-indol-2-one] |  |
|  | 130 | Cn1c(CN2C(=O)C(F)(F)c3c([C@@H](O)C(F)(F)F)cccc32)cc2ccccc2c1=O [Compound 142, 3-({3,3-difluoro-2-oxo-4-[(1R)-2,2,2-trifluoro-1-hydroxyethyl]-2,3-dihydro-1H-indol-1-yl}methyl)-2-methylisoquinan-1(2H)-one] |  |
|  | 28 | C[C@H](O)c1cccc2c1C(F)(F)C(=O)N2Cc1ccsc1 [Compound 80, 3,3-difluoro-4-[(1S)-1-hydroxyethyl]-1-(thiophen-3-ylmethyl)-1,3-dihydro-2H-indol-2-one] |  |
|  | 1000 | C[C@H](O)c1cccc2c1C(F)(F)C(=O)N2Cc1nnc2ccccc2n1 [Compound 105, 1-(1,2,4-benzotriazin-3-ylmethyl)-3,3-difluoro-4-[(1S)-1-hydroxyethyl]-1,3-dihydro-2H-indol-2-one] |  |
|  | 14 | CC(O)c1cccc2c1C(F)(F)C(=O)N2Cc1cncc(Cl)c1 (single isomer, unassigned) [Compound 7, 1-[(5-chloropyridin-3-yl)methyl]-3,3-difluoro-4-(1-hydroxyethyl)-1,3-dihydro-2H-indol-2-one] |  |
| 6.2 |  | C[C@H](O)c1cccc2c1C(F)(F)C(=O)N2Cc1ccc(C(F)(F)F)c(Cl)n1 [Compound 238, 1-{[6-chloro-5-(trifluoromethyl)pyridin-2-yl]methyl}-3,3-difluoro-4-[(1S)-1-hydroxyethyl]-1,3-dihydro-2H-indol-2-one] |  |
|  | 1500 | C[C@H](O)c1cccc2c1C(F)(F)C(=O)N2Cc1cncc(-n2ccnn2)c1 [Compound 87, 3,3-difluoro-4-[(1S)-1-hydroxyethyl]-1-{[5-(1H-1,2,3-triazol-1-yl)pyridin-3-yl]methyl}-1,3-dihydro-2H-indol-2-one] |  |
|  | 350 | O=C1N(Cc2ccnc(Cl)c2)c2cccc([C@H](O)C(F)(F)F)c2C1(F)F [Compound 31, 1-[(2-chloropyridin-4-yl)methyl]-3,3-difluoro-4-[(1S)-2,2,2-trifluoro-1-hydroxyethyl]-1,3-dihydro-2H-indol-2-one] |  |
| 380 |  | C[C@H](O)c1cccc2c1C(F)(F)C(=O)N2Cc1ncccc1C(F)(F)F [Compound 227, 3,3-difluoro-4-[(1S)-1-hydroxyethyl]-1 {[3-(trifluoromethyl)pyridin-2-yl]methyl)-1,3-dihydro-2H-indol-2-one] |  |
|  | 320 | C[C@H](O)c1cccc2c1C(F)(F)C(=O)N2Cc1ccc2ncccc2n1 [Compound 78, 3,3-difluoro-4-[(1S)-1-hydroxyethyl]-1-(1,5-naphthyridin-2-ylmethyl)-1,3-dihydro-2H-indol-2-one] |  |
|  | 88 | C[C@H](O)c1cccc2c1C(F)(F)C(=O)N2Cc1cccc2ccnn12 [Compound 104, 3,3-difluoro-4-[(1S)-1-hydroxyethyl]-1-(pyrazolo[1,5-a]pyridin-7-ylmethyl)-1,3-dihydro-2H-indol-2-one] |  |
| 34 |  | C[C@H](O)c1cccc2c1C(F)(F)C(=O)N2Cc1cc(Cl)nc(C#N)c1 [Compound 187, 6-chloro-4-({3,3-difluoro-4-[(1S)-1-hydroxyethyl]-2-oxo-2,3-dihydro-1H-indol-1-yl}methyl)pyridine-2-carbonitrile] |  |
| 8.6 |  | COc1ncc(CN2C(=O)C(F)(F)c3c([C@H](C)O)cccc32)cc1Cl [Compound 222, 1-[(5-chloro-6-methoxypyridin-3-yl)methyl]-3,3-difluoro-4-[(1S)-1-hydroxyethyl)-1,3-dihydro-2H-indol-2-one] |  |

Continued, compound first:

| Structure (SMILES) | IC50 [nM] | IC50 (glycine uptake inhibition) [nM] | other results |
| --- | --- | --- | --- |
| C[C@H](O)c1cccc2c1C(F)(F)C(=O)N2Cc1ccnc(OC(F)F)c1 [Compound 194, 1-{[2-(difluoromethoxy)pyridin-4-yl]methyl}-3,3-difluoro-4-[(1S)-1-hydroxyethyl]-1,3-dihydro-2H-indol-2-one] | 43 |  |  |
| C[C@H](O)c1cccc2c1C(F)(F)C(=O)N2Cc1ccncc1 [Compound 64, 3,3-difluoro-4-[(1S)-1-hydroxyethyl]-1-(pyridin-4-ylmethyl)-1,3-dihydro-2H-indol-2-one] |  | 390 |  |
| O=C1N(Cc2cccc(F)c2)c2cccc(C(O)C(F)F)c2C1(F)F (single isomer, unassigned) [Compound 158, 4-(2,2-difluoro-1-hydroxyethyl)-3,3-difluoro-1-(3-fluorobenzyl)-1,3-dihydro-2H-indol-2-one] |  | 16 |  |
| C[C@H](O)c1cccc2c1C(F)(F)C(=O)N2Cc1nc2ccccc2n(C)c1=O [Compound 101, 3-({3,3-difluoro-4-[(1S)-1-hydroxyethyl]-2-oxo-2,3-dihydro-1H-indol-1-yl}methyl)-1-methylquinoxalin-2(1H)-one] |  | 41 |  |
| C[C@H](O)c1cccc2c1C(F)(F)C(=O)N2Cc1ccnc(C(F)(F)F)c1 [Compound 86, 3,3-difluoro-4-[(1S)-1-hydroxyethyl]-1-{[2-(trifluoromethyl)pyridin-4-yl]methyl}-1,3-dihydro-2H-indol-2-one] |  | 24 |  |
| C[C@H](O)c1cccc2c1C(F)(F)C(=O)N2Cc1ccc(-n2cncn2)nc1 [Compound 193, 3,3-difluoro-4-[(1S)-1-hydroxyethyl]-1-{[6-(1H-1,2,4-biazol-1-yl)pyridin-3-yl]methyl}-1,3-dihydro-2H-indol-2-one] | 1400 |  |  |
| C[C@H](O)c1cccc2c1C(F)(F)C(=O)N2Cc1ccnc(C#N)c1Cl [Compound 192] | 67 |  |  |
| O=C1N(Cc2ccnc(C(F)(F)F)c2)c2cccc(C(O)C(F)F)c2C1(F)F (single isomer, unassigned) [Compound 191, 4-(2,2-difluoro-1-hydroxyethyl)-3,3-difluoro-1-{[2-(trifluoromethyl)pyridin-4-yl]methyl}-1,3-dihydro-2H-Indol-2-one] | 29 |  |  |
| O=C1N(Cc2cccc(Cl)n2)c2cccc(C3(O)CC3)c2C1(F)F [Compound 26, 1-[(6-chloropyridin-2-yl)methyl]-3,3-difluoro-4-(1-hydroxycyclo-propyl)-1,3-dihydro-2H-indol-2-one] |  | 1500 |  |
| O=C1N(Cc2cc(C(F)(F)F)c(Cl)cn2)c2cccc(C(O)C(F)F)c2C1(F)F (single isomer, unassigned) [Compound 268, 1-{[5-chloro-4-(trifluoromethyl)pyridin-2-yl]methyl)-4-(2,2-difluoro-1-hydroxyethyl)-3,3-difluoro-1,3-dihydro-2H-indol-2-one] |  |  | IC50 (table section whose head prints (μm)): 16 nM |
| COc1ccc(CN2C(=O)C(F)(F)c3c(C(O)C(F)F)cccc32)cn1 (single isomer, unassigned) [Compound 255, 4-(2,2-difluoro-1-hydroxyethyl)-3,3-difluoro-1-[(6-methoxypyridin-3-yl)methyl)-1,3-dihydro-2H-indol-2-one] | 69 |  |  |
| O=C1N(Cc2ccc(F)nc2)c2cccc([C@@H](O)C(F)(F)F)c2C1(F)F [Compound 155, 3,3-difluoro-1-[(6-fluoropyridin-3-yl)methyl]-4-[(1R)-2,2,2-trifluoro-1-hydroxyethyl]-1,3-dihydro-2H-indol-2-one] |  | 180 |  |
| C[C@H](O)c1cccc2c1C(F)(F)C(=O)N2Cc1cc(C(F)(F)F)ccn1 [Compound 96, 3,3-difluoro-4-[(1S)-1-hydroxyethyl]-1-{[4-(trifluoromethyl)pyridin-2-yl]methyl}-1,3-dihydro-2H-indol-2-one] |  | 51 |  |
| C[C@H](O)c1cccc2c1C(F)(F)C(=O)N2Cc1cccnc1 [Compound 61, 3,3-difluoro-4-[(1S)-1-hydroxyethyl]-1-(pyridin-3-ylmethyl)-1,3-dihydro-2H-indol-2-one] |  | 420 |  |
| C[C@H](O)c1cccc2c1C(F)(F)C(=O)N2Cc1cc(OC(F)F)ccn1 [Compound 245, 1-{[4-(difluoromethoxy)pyridin-2-yl]methyl}-3,3-difluoro-4-[(1S)-1-hydroxyethyl]-1,3-dihydro-2H-indol-2-one] | 110 |  |  |
| O=C1N(Cc2cccc(Cl)n2)c2cccc(C(O)C(F)(F)F)c2C1(F)F (stereo not shown) [Compound 2, 1-[(6-chloropyridin-2-yl)methyl]-3,3-difluoro-4-(2,2,2-trifluoro-1-hydroxyethyl)-1,3-dihydro-2H-indol-2-one] |  | 51 |  |
| O=C1N(Cc2ccnc(C(F)F)c2)c2cccc([C@@H](O)C(F)(F)F)c2C1(F)F [Compound 139, 1-[[2-(difluoromethyl)pyridin-4-yl]methyl]-3,3-difluoro-4-[(1R)-2,2,2-trifluoro-1-hydroxyethyl]-1,3-dihydro-2H-indol-2-one] |  | 45 |  |

— patent US20160159814A1, “GLYCINE TRANSPORTER INHIBITOR” (TAISHO PHARMACEUTICAL CO., LTD., priority 2013, published 2016)
